This is an account of results in patent publication US20170081357A1, “[…] ACTIVE 17-NITROGEN SUBSTITUTED ESTRATREINTHIAZOLE DERIVATIVES AS INHIBITORS OF 17.BETA-HYDROXYSTEROID DEHYDROGENASE” (FORENDO PHARMA LTD, priority 2013, published 2017).

SMILES strings stand for the structures.

The nature of series [1]: Metabolic stability assay, human liver microsome and homogenate incubations. It is filed as in vitro ADME. Particulars: human liver homogenate or microsomes, LC/PDA/TOF-MS. As for the experimental part: The in vitro metabolic stability of the compounds of the invention was determined for exemplified compounds using human liver microsome and homogenate incubations. The incubation time points used with or without appropriate cofactors were 0 min and 60 min. Samples were collected at both time points and substrates were detected using LC/PDA/TOF-MS. In vitro metabolic stability (% remaining after 60 min in human liver homogenate or microsomes) of the compounds were calculated and the results are summarized in Table 3.
(In general: Liver microsomes are a subcellular fraction often used to study metabolism.)

In series [2] the target is T1, recombinant human 17β-HSD2 (Homo sapiens, UniProt P37059).
T1 construct: made in house; host or cells: Sd9 (Sf9) insect cells, baculovirus (Bac to Bac Expression System); fractionated cell extract
T1 sequence (P37059 1-387): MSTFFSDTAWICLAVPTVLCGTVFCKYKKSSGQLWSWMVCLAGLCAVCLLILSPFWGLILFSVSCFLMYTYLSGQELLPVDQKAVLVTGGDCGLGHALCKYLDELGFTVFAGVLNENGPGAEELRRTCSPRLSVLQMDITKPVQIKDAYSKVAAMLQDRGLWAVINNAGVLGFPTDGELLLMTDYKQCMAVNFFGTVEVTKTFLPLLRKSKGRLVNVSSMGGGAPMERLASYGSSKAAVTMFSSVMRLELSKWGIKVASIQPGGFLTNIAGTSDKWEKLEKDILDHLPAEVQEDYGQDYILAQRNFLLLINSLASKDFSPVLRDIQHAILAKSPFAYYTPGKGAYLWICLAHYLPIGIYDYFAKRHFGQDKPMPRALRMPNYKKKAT
Kind of series: Inhibition of recombinant human 17β-HSD2 (conversion of 3H-estradiol to estrone, HPLC). In kind it is biochemical. Particulars: inhibitor 1 μM; 50 nM estradiol, 1 mM NADH, 30 min at RT. The gist of the method: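 Baculovirus/Sf9-expressed enzyme in detergent-solubilised membrane extract, 4 μg/ml, incubated 30 min at RT in 20 mM KH2PO4 pH 8.5 with 50 nM estradiol (³H-tracer) and 1 mM NADH; inhibitor at 1 μM or 0.1 μM, 1% DMSO final. TCA-stopped; estrone/estradiol separated by reverse-phase HPLC with flow scintillation; % inhibition = 100 − % conversion.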

Series [3] addresses T2, recombinant human 17β-HSD1 (Homo sapiens, UniProt P14061).
T2 construct: made in house; host or cells: Sd9 (Sf9) insect cells, baculovirus (Bac to Bac Expression System); microsomal fraction
T2 sequence (P14061 1-328): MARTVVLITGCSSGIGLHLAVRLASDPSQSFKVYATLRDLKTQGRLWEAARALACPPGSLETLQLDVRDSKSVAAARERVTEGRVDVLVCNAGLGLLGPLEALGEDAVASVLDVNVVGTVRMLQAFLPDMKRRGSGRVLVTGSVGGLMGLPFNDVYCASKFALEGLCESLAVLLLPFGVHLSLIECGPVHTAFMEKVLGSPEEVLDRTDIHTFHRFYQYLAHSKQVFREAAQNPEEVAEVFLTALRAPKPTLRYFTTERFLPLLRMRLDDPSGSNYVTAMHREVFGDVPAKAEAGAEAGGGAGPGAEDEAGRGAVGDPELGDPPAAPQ
The series can be described thus: Inhibition of recombinant human 17β-HSD1 (conversion of 3H-estrone to estradiol, HPLC). It is filed as biochemical. The conditions noted are these: inhibitor 1 μM; 30 nM estrone, 1 mM NADPH, 30 min at RT; read-out: 17β-HDS1 Inhibition % at 1 μM. In short, it runs like this:
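Microsomal recombinant human 17β-HSD1 (1 μg/ml) from insect cells incubated 30 min at RT in 20 mM KH2PO4 pH 7.4 with 30 nM 3H-estrone, 1 mM NADPH and inhibitor at 1 μM or 0.1 μM (1% DMSO). Estrone/estradiol separated by reverse-phase HPLC with radioactivity flow detection; % inhibition = 100 − % conversion.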

Regarding `Cc1cnc(NC(=O)CC[C@@H]2C(=C\O)/C(=N\O)[C@@]3(C)CCC4c5cc(Br)c(O)c(Br)c5CCC4C23)s1` (stereo partly drawn) [Compound 70, 3-{(13S,15S)-2,4-Dibromo-3-hydroxy-17-[(Z)-hydroxyimino]-16-[1-hydroxy-meth-(E)-ylidene]-13-methyl-7,8,9,11,12,13,14,15,16,17-decahydro-6H-cyclopenta[a]phenanthren-15-yl}-N-(5-methylthiazol-2-yl)propanamide], in series [1], the “In vitro metabolic stability, % remaining after 60 min” value worked out at 97%. In addition, the inhibition (commonly how much of the control response was suppressed) at 1 µM in series [2] came to 8%; in series [3] it was 94%.

Turning to `CO/N=C1\C[C@@H](CCC(=O)Nc2ncc(C)s2)C2C3CCc4cc(O)c(F)cc4C3CC[C@]12C` (stereo partly drawn) [Compound 91, 3-{(13S,15R)-2-Fluoro-3-hydroxy-17-[(E)-methoxyimino]-13-methyl-7,8,9,11,12,13,14,15,16,17-decahydro-6H-cyclopenta[a]phenanthren-15-yl}-N-(5-methylthiazol-2-yl)propanamide], the “In vitro metabolic stability, % remaining after 60 min” value in series [1] was 92%. The values for the inhibition at 1 µM in series [2] and in series [3] were 5% and 94%, respectively.

For `CO/N=C1\C[C@@H](CCC(=O)Nc2ncc(C)s2)C2C3CCc4c(ccc(O)c4F)C3CC[C@]12C` (stereo partly drawn) [Compound 92, 3-{(13S,15R)-4-Fluoro-3-hydroxy-17-[(E)-methoxyimino]-13-methyl-7,8,9,11,12,13,14,15,16,17-decahydro-6H-cyclopenta[a]phenanthren-15-yl}-N-(5-methylthiazol-2-yl)propanamide], the “In vitro metabolic stability, % remaining after 60 min” value in series [1] amounted to 68%. Moreover, the inhibition at 1 µM in series [2] turned out to be 7%; in series [3] it was 90%.
